Measured values taken from patent US20100063085A1, “METHOD OF TREATING LEARNING IMPAIRMENT IN DOWN'S SYNDROME SUBJECTS” (University Court of The University of Dundee, priority 2008, published 2010).
Like-named read-outs stand apart in the source and are kept apart here.

Tests used:
Test in all cases: biochemical
IKKb = target: T1, IKKb (Homo sapiens, UniProt O14920); details: read-out: IKKb activity as percentage of control without inhibitor
T1 sequence (O14920 1-756): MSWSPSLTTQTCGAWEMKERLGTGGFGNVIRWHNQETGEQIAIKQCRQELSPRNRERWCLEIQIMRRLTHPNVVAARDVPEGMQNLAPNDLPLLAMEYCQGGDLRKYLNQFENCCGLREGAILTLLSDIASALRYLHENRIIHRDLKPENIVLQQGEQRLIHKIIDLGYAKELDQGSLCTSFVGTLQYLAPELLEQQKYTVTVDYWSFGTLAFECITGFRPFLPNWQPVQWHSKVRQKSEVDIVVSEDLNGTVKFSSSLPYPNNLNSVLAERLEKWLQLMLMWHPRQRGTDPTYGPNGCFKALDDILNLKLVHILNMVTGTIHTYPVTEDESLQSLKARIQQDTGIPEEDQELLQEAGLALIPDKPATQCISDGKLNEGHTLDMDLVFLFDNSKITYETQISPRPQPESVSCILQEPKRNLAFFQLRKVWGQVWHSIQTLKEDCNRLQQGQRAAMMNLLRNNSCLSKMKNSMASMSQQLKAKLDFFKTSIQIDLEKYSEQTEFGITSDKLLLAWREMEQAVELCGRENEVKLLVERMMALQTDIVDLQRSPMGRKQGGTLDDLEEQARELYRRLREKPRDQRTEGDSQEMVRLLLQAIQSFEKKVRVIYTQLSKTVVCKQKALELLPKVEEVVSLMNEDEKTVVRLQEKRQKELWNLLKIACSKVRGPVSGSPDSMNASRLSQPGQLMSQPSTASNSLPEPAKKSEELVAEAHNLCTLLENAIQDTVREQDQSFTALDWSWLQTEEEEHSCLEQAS
Description: (§1) All assays (25.5 μl) were carried out at room temperature (21° C.) and were linear with respect to time and enzyme concentrations under the conditions used. Assays were performed for 30 minutes except assays for LCK and PKB which were performed for 15 minutes using Multidrop Micro reagent dispensers (Thermo Electron Corporation, Waltham, Mass. 02454, USA) in a 96-well format. The concentration of […] [γ-^33P] ATP (800 cpm/pmol) in the assays was one of three concentrations (5, 20 or 50 μM) in order to be at or below Km for ATP for the enzyme. Assays were initiated with MgATP and stopped by addition of 5 μl of 0.5M orthophosphoric acid. Assays were then harvested onto P81 filterplates using a unifilter harvester (PerkinElmer, Boston, Mass. 02118, USA), with a wash buffer of 50 mM orthophosphoric acid. Filterplates were then air dried overnight. 10 μl of Microscint O was added per well prior to counting for radioactivity.
(§2) The following kinases were assayed against the substrates indicated. Aurora B was assayed against the substrate peptide […] (300 μM), ERK8 and MST-2 were both assayed against MBP (0.33 mg/ml). IKKβ was assayed against the substrate peptide […] (300 μM), JNK3 was assayed against 3 μM ATF2[19-96]. MAPKAP-K3 and PKD1 were both assayed against […] (30 μM), MARK3 was assayed against CHKtide ([…]) substrate peptide (300 μM). MNK1 and MNK2 were both assayed against eIF4E protein (0.5 mg/ml). NEK7 was assayed against […] (300 μM), PIM2 was assayed against […] (300 μM), ΔPH PKBβ-S474D was assayed against Crosstide (30 μM), PLK1 was assayed against […] (300 μM). PRK2 was assayed against Long S6 peptide, […] (30 μM), RSK2 was assayed against […] (30 μM), SRC was assayed against cdc2 peptide, […], (300 μM) and SRPK1 was assayed against peptide […] (300 μM). All enzymes were diluted in 50 mM Tris/HCl pH 7.5, 0.1 mM EGTA, 1 mg/ml BSA, 0.1% β-mercaptoethanol buffer and assayed in an incubation containing 50 mM Tris/HCl pH7.5, 0.1 mM EGTA, 0.1% β-mercaptoethanol, CAMK-1 (5-20 mU) diluted in 50 mM Tris/HCl pH 7.5, 0.1 mM EGTA, 1 mg/ml BSA, 0.1% β-mercaptoethanol is assayed against substrate peptide […] in an incubation containing 50 mM Tris/HCl pH 7.5, 0.1 mM EGTA, 0.5 mM CaCl2, 0.3 μM calmodulin, 0.1% β-mereaptoethanol, 300 μM substrate peptide, 10 mM magnesium acetate and 0.05 mM [^33P-γ-ATP] (500-1000 cpm/pmole). EF2K (5-20 mU) diluted in 50 mM Hepes pH 6.6, 0.1% β-mercaptoethanol, 1 mg/ml BSA is assayed against a substrate peptide […] in an incubation containing 50 mM Hepes pH 6.6, 0.2 mM CaCl2, 0.3 μM Calmodulin, 0.05% b-mercaptoethanol, 300 μM substrate peptide, 10 mM magnesium acetate and 0.05 mM [^33P-γ-ATP] (500-1000 cpm/pmole).

SRPK1 = SRPK1 (Homo sapiens, UniProt Q96SB4); details: read-out: SRPK1 activity as percentage of control without inhibitor
Description: as §1, §2

CAMK-1 = CAMK-1 (Homo sapiens, UniProt Q14012); details: read-out: CAMK-1 activity as percentage of control without inhibitor
Description: as §1, §2

MARK3 = MARK3 (Homo sapiens, UniProt P27448); details: read-out: MARK3 activity as percentage of control without inhibitor
Description: as §1, §2

MNK2 = MNK2 (Homo sapiens, UniProt Q9HBH9); details: read-out: MNK2 activity as percentage of control without inhibitor
Description: as §1, §2

NEK7 = NEK7 (Homo sapiens, UniProt Q8TDX7); details: read-out: NEK7 activity as percentage of control without inhibitor
Description: as §1, §2

SRPK1, sequence (Q96SB4 whole entry, species assumed): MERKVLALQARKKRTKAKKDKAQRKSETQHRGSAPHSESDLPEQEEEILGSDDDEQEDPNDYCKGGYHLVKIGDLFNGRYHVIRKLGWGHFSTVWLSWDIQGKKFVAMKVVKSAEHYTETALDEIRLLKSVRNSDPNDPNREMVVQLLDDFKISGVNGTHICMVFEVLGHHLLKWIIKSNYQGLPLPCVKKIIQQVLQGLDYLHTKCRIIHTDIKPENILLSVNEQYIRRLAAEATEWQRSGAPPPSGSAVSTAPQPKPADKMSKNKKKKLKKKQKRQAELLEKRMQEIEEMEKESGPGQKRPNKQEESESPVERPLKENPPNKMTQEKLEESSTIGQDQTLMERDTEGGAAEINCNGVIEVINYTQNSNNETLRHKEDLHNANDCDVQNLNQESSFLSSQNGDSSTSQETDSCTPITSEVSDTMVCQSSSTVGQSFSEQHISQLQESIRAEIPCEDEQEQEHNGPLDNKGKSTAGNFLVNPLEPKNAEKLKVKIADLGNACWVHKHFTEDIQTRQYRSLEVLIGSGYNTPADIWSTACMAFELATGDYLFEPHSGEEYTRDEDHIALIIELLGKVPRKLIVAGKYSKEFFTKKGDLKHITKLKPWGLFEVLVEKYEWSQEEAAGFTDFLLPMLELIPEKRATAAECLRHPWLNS
MNK2, sequence (Q9HBH9 whole entry, species assumed): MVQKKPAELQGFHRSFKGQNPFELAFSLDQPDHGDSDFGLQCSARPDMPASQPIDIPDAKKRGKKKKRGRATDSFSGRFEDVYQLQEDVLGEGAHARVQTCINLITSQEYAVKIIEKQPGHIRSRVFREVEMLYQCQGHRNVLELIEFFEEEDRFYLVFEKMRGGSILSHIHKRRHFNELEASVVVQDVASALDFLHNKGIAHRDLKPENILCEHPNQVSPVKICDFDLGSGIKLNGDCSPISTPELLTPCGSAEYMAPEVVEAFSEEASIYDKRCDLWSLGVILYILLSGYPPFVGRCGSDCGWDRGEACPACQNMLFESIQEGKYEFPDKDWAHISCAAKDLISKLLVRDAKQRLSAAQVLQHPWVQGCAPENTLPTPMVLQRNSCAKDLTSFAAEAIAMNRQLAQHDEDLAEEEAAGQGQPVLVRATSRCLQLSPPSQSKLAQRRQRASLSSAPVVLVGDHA
MARK3, sequence (P27448 whole entry, species assumed): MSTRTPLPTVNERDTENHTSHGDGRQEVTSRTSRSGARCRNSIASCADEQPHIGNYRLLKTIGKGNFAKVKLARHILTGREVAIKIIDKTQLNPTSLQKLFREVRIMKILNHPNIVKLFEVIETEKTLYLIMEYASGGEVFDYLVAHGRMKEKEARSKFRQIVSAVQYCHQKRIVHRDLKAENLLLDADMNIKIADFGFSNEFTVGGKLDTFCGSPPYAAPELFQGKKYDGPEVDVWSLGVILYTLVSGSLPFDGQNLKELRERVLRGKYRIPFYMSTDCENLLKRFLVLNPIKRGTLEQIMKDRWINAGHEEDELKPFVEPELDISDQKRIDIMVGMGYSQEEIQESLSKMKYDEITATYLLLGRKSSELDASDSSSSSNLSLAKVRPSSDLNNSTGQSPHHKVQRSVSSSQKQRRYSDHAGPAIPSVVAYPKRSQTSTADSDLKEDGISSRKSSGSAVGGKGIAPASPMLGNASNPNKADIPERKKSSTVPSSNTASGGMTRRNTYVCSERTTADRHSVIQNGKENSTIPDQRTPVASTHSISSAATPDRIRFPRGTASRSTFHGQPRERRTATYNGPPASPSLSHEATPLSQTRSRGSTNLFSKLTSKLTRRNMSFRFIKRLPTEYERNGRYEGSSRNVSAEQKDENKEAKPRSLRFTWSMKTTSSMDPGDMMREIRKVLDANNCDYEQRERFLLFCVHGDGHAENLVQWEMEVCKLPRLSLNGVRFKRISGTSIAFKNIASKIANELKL
NEK7, sequence (Q8TDX7 whole entry, species assumed): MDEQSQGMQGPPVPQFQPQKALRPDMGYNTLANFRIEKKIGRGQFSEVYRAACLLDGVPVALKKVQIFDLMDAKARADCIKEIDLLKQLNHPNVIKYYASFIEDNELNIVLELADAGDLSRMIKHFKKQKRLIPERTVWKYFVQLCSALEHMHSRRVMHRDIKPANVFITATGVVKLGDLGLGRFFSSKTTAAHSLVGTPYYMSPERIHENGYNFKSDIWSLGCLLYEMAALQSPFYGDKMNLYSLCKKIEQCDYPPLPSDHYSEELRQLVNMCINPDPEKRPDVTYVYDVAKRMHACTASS

Row | SMILES | remaining activity at 1 µM (IKKb; inhibitor 1 μM) | remaining activity at 10 µM (IKKb; inhibitor 10 μM) | remaining activity at 1 µM (SRPK1; inhibitor 1 μM) | remaining activity at 10 µM (SRPK1; inhibitor 10 μM) | remaining activity at 1 µM (CAMK-1; inhibitor 1 μM) | remaining activity at 10 µM (CAMK-1; inhibitor 10 μM) | remaining activity at 1 µM (MARK3; inhibitor 1 μM) | remaining activity at 10 µM (MARK3; inhibitor 10 μM) | remaining activity at 1 µM (MNK2; inhibitor 1 μM) | remaining activity at 10 µM (MNK2; inhibitor 10 μM) | remaining activity at 1 µM (NEK7; inhibitor 1 μM) | remaining activity at 10 µM (NEK7; inhibitor 10 μM) | also measured
1 | COc1ccc2c(c1)[nH]c1c(C)nccc12 [Harmine] | – | – | – | – | – | – | – | – | – | – | – | – | remaining activity at 1 µM (IKKb): 97%; remaining activity at 10 µM (IKKb): 73%; remaining activity at 1 µM (SRPK1): 86%; remaining activity at 10 µM (SRPK1): 83%; remaining activity at 1 µM (CAMK-1): 107%; remaining activity at 10 µM (CAMK-1): 94%; remaining activity at 1 µM (MARK3): 86%; remaining activity at 10 µM (MARK3): 86%; remaining activity at 1 µM (MNK2): 84%; remaining activity at 10 µM (MNK2): 98%; remaining activity at 1 µM (NEK7): 90%; remaining activity at 10 µM (NEK7): 92%
2 | COc1ccc2c3c([nH]c2c1)C(C)=NCC3 [Harmaline] | 78% | 82% | 104% | 97% | 99% | 110% | 99% | 103% | 88% | 77% | 95% | 115% | –
3 | CC1=NCCc2c1[nH]c1cc(O)ccc21 [Harmalol] | 93% | 69% | 88% | 72% | 93% | 60% | 93% | 84% | 97% | 71% | 83% | 56% | –
